Reference: the supplement of paper PMC10883282

Assays:
Experiment in all cases: relative viability vs DMSO control (72 h) (fraction); higher = more viable cells
G401 = test system: G401
How it was run: (§1)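 Sarcoma cell lines were seeded in 384-well plates at densities chosen for 80–90% confluence, then 24 h later given 2.5 µl of serially diluted compound drawn from source plates spanning 10 mM to 0.0002 mM. They were held 72 h at 37 °C, 5% CO2, with 0.1% DMSO vehicle and a 5 µM positive control included. Relative viability was read with ATPLite as percent growth and averaged over up to triplicate wells. Rescaling placed full at 1 and none at 0.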

KHOS-240S = test system: KHOS-240S
How it was run: as §1

SW1353 = test system: SW1353
How it was run: as §1

SYO-1 = test system: SYO-1
How it was run: as §1

SW982 = test system: SW982
How it was run: as §1

HT1080 = test system: HT1080
How it was run: as §1

KHOS-NP = test system: KHOS-NP
How it was run: as §1

SW872 = test system: SW872
How it was run: as §1

SW684 = test system: SW684
How it was run: as §1

RD-ES = test system: RD-ES
How it was run: as §1

A204 = test system: A204
How it was run: as §1

SK-ES-1 = test system: SK-ES-1
How it was run: as §1

CN(C)C/C=C/C(=O)Nc1cc2c(Nc3ccc(F)c(Cl)c3)ncnc2cc1O[C@H]1CCOC1 [Afatinib]
Settings	relative viability
A204, 0.00017 µM	0.993
A204, 0.00051 µM	1
A204, 0.00152 µM	1.03
A204, 0.00457 µM	0.976
A204, 0.01372 µM	1.01
A204, 0.04115 µM	0.945
A204, 0.1235 µM	0.859
A204, 0.3704 µM	0.595
A204, 1.111 µM	0.34
A204, 3.333 µM	0.175
A204, 10 µM	0.00583
G401, 0.00017 µM	1.02
G401, 0.00051 µM	1.03
G401, 0.00152 µM	1.015
G401, 0.00457 µM	1.03
G401, 0.01372 µM	1.03
G401, 0.04115 µM	0.9814
G401, 0.1235 µM	0.97
G401, 0.3704 µM	0.846
G401, 1.111 µM	0.61
G401, 3.333 µM	0.472
G401, 10 µM	0.212
HT1080, 0.00017 µM	1.1
HT1080, 0.00051 µM	1.12
HT1080, 0.00152 µM	1.1
HT1080, 0.00457 µM	1.08
HT1080, 0.01372 µM	1.07
HT1080, 0.04115 µM	1.07
HT1080, 0.1235 µM	1.11
HT1080, 0.3704 µM	1.11
HT1080, 1.111 µM	1.02
HT1080, 3.333 µM	0.767
HT1080, 10 µM	0.173
KHOS-240S, 0.00017 µM	1.06
KHOS-240S, 0.00051 µM	1.06
KHOS-240S, 0.00152 µM	1.07
KHOS-240S, 0.00457 µM	1.08
KHOS-240S, 0.01372 µM	1.06
KHOS-240S, 0.04115 µM	1.04
KHOS-240S, 0.1235 µM	1.03
KHOS-240S, 0.3704 µM	0.991
KHOS-240S, 1.111 µM	0.715
KHOS-240S, 3.333 µM	0.402
KHOS-240S, 10 µM	0.0697
KHOS-NP, 0.00017 µM	1.09
KHOS-NP, 0.00051 µM	1.08
KHOS-NP, 0.00152 µM	1.07
KHOS-NP, 0.00457 µM	1.07
KHOS-NP, 0.01372 µM	1.07
KHOS-NP, 0.04115 µM	1.07
KHOS-NP, 0.1235 µM	1.06
KHOS-NP, 0.3704 µM	1.08
KHOS-NP, 1.111 µM	1.02
KHOS-NP, 3.333 µM	0.967
KHOS-NP, 10 µM	0.0212
RD-ES, 0.00017 µM	0.992
RD-ES, 0.00051 µM	0.986
RD-ES, 0.00152 µM	1
RD-ES, 0.00457 µM	0.973
RD-ES, 0.01372 µM	1
RD-ES, 0.04115 µM	0.969
RD-ES, 0.1235 µM	0.914
RD-ES, 0.3704 µM	0.829
RD-ES, 1.111 µM	0.647
RD-ES, 3.333 µM	0.381
RD-ES, 10 µM	0.0144
SK-ES-1, 0.00017 µM	1.01
SK-ES-1, 0.00051 µM	1.05
SK-ES-1, 0.00152 µM	1.04
SK-ES-1, 0.00457 µM	0.988
SK-ES-1, 0.01372 µM	1.03
SK-ES-1, 0.04115 µM	0.959
SK-ES-1, 0.1235 µM	0.858
SK-ES-1, 0.3704 µM	0.676
SK-ES-1, 1.111 µM	0.306
SK-ES-1, 3.333 µM	0.117
SK-ES-1, 10 µM	0.113
SW684, 0.00017 µM	1.18
SW684, 0.00051 µM	1.18
SW684, 0.00152 µM	1.23
SW684, 0.00457 µM	1.18
SW684, 0.01372 µM	1.14
SW684, 0.04115 µM	1.13
SW684, 0.1235 µM	1.1
SW684, 0.3704 µM	1.04
SW684, 1.111 µM	0.816
SW684, 3.333 µM	0.527
SW684, 10 µM	0.203
SW872, 0.00017 µM	1.07
SW872, 0.00051 µM	1.14
SW872, 0.00152 µM	1.09
SW872, 0.00457 µM	1.11
SW872, 0.01372 µM	1.07
SW872, 0.04115 µM	1.06
SW872, 0.1235 µM	1.02
SW872, 0.3704 µM	0.896
SW872, 1.111 µM	0.595
SW872, 3.333 µM	0.304
SW872, 10 µM	0.257
SW982, 0.00017 µM	1.017
SW982, 0.00051 µM	1.03
SW982, 0.00152 µM	1.03
SW982, 0.00457 µM	1.06
SW982, 0.01372 µM	1.05
SW982, 0.04115 µM	1.02
SW982, 0.1235 µM	0.914
SW982, 0.3704 µM	0.659
SW982, 1.111 µM	0.286
SW982, 3.333 µM	0.183
SW982, 10 µM	0.219
SW1353, 0.00017 µM	1.03
SW1353, 0.00051 µM	1.01
SW1353, 0.00152 µM	0.965
SW1353, 0.00457 µM	0.923
SW1353, 0.01372 µM	0.822
SW1353, 0.04115 µM	0.771
SW1353, 0.1235 µM	0.749
SW1353, 0.3704 µM	0.653
SW1353, 1.111 µM	0.485
SW1353, 3.333 µM	0.3677
SW1353, 10 µM	0.22
SYO-1, 0.00017 µM	1.03
SYO-1, 0.00051 µM	1.01
SYO-1, 0.00152 µM	0.979
SYO-1, 0.00457 µM	0.949
SYO-1, 0.01372 µM	0.957
SYO-1, 0.04115 µM	0.946
SYO-1, 0.1235 µM	0.903
SYO-1, 0.3704 µM	0.838
SYO-1, 1.111 µM	0.5276
SYO-1, 3.333 µM	0.00877
SYO-1, 10 µM	-0.00643
